Results reported in patent US20020137929A1, “1 - (3-heterocyclylphenyl) isothiourea, -isourea, -guanidine and -amidine herbicidal agents” (Intellectual Property Department, BASF Aktiengesellschaft, priority 1998, published 2002).

Key:
ABUTH (Velvetleaf) = assay: Postemergence herbicidal evaluation; format: in vivo, Abutilon theophrasti
Description: (§1) In the tests, seedling plants are grown in jiffy flats for about two weeks. The test compounds are dispersed in 50/50 acetone/water mixtures containing 0.5% TWEEN®20, a polyoxyethylene sorbitan monolaurate surfactant of Atlas Chemical Industries, in sufficient quantities to provide the equivalent of about 0.0156 kg to 0.500 kg per hectare of active compound when applied to the plants through a spray nozzle operating at 40 psi for a predetermined time. After spraying, the plants are placed on greenhouse benches and are cared for in accordance with conventional greenhouse procedures. From four to five weeks after treatment, the seedling plants are examined and rated according to the rating system set forth below. Where more than one test is involved for a given compound, the data are averaged.
(§2) Plant species employed in these evaluations are reported by header abbreviation, common name and scientific name.
(§3) Results of herbicide evaluation are expressed on a rating scale (0-9). The scale is based upon a visual observation of plant stand, vigor, malformation, size, chlorosis and overall plant appearance as compared with a control.

AMBEL (Ragweed, Common) = assay: Postemergence herbicidal evaluation; format: in vivo, Ambrosia artemisifolia
Description: as §1, §2, §3

CASOB (Sicklepod) = assay: Postemergence herbicidal evaluation; format: in vivo, Cassia obtusifolia
Description: as §1, §2, §3

[1] = tested on: CHEAL (Lambsquarters, Common); assay: Postemergence herbicidal evaluation; format: in vivo, Chenopodium album
Description: as §1, §2, §3

GALAP (Galium) = assay: Postemergence herbicidal evaluation; format: in vivo, Galium aparine
Description: as §1, §2, §3

[2] = tested on: IPOHE (Morningglory, Ivyleaf); assay: Postemergence herbicidal evaluation; format: in vivo, Ipomoea hederacea
Description: as §1, §2, §3

ECHCG (Barnyardgrass) = assay: Postemergence herbicidal evaluation; format: in vivo, Echinochloa crus-galli
Description: as §1, §2, §3

SETVI (Foxtail, Green) = assay: Postemergence herbicidal evaluation; format: in vivo, Setaria viridis
Description: as §1, §2, §3

[3] = tested on: GLXMAW (Soybean, Williams); assay: Postemergence herbicidal evaluation; format: in vivo, Glycine max, (L.) Merr. cv Williams
Description: as §1, §2, §3

ORYSAT (Rice, Tebonnet) = assay: Postemergence herbicidal evaluation; format: in vivo, Oryza sativa, (L.) Tebonnet
Description: as §1, §2, §3

[4] = tested on: TRZAWR (Wheat, Winter, cv Riband); assay: Postemergence herbicidal evaluation; format: in vivo, Triticum aestivum
Description: as §1, §2, §3

ZEAMX (Corn, Field) = assay: Postemergence herbicidal evaluation; format: in vivo, Zea mays
Description: as §1, §2, §3

[5] = tested on: ECHORC (Watergrass (Calif.)); assay: Preemergence weed control under flooded paddy conditions; format: in vivo, Echinochloa oryzoides; settings: rated 3-4 weeks after treatment
Description: as §3
(§4) Preemergence herbicidal activity under flooded paddy conditions is determined as follows: plant seeds or propagating organs are planted in the top 0.5 cm of silt loam soil in 32 oz. plastic containers with a diameter of 10.5 cm and no drainage holes. Water is added to these containers and maintained at 1.5 to 3 cm above the soil surface for the duration of the experiment. The test compounds are applied as aqueous/acetone mixtures 50/50 v/v pipetted directly into the flood water to give the equivalent of about 0.0313 to 0.500 kg/ha of active ingredient. The treated containers are placed on greenhouse benches and cared for in accordance with conventional greenhouse procedures. Three to four weeks after treatment, the test is terminated and each container is examined and herbicidal effect rated according to the rating system provided in Example 37. The compounds evaluated are reported by compound number given in Example 37.
(§5) Plant species employed in this example are reported by header abbreviation, common name and scientific name.

CYPIR (Rice Flatsedge) [6] = assay: as above; format: in vivo, Cyperus iria; settings: rated 3-4 weeks after treatment
Description: as §3, §4, §5

CYPSE (Flatsedge) [7] = assay: as above; format: in vivo, Cyperus serotinus; settings: rated 3-4 weeks after treatment
Description: as §3, §4, §5

MOOVA (Monochoria) [8] = assay: as above; format: in vivo, Monochoria vaginalis; settings: rated 3-4 weeks after treatment
Description: as §3, §4, §5

[9] = tested on: SAGPY (Arrowhead (Pygmaea)); assay: as above; format: in vivo, Sagittaria pygmaea; settings: rated 3-4 weeks after treatment
Description: as §3, §4, §5

[10] = tested on: ECHORC (Watergrass (Calif.)); assay: Postemergence weed control under flooded paddy conditions; format: in vivo, Echinochloa oryzoides; settings: postemergence weeds, 3-4 weeks after treatment
Source text: as §3
(§6) Plastic containers containing weeds which are 3 to 5 cm tall and rice seedlings at the 1.5 to 2.5 leaf stage are flooded with water. The water is maintained at 1.5 to 3 cm above the soil surface for the duration of the experiment. Test compounds are applied as aqueous/ acetone mixtures 50/50 v/v directly into the flood water to provide the equivalent of about 0.0313 to 0.500 kg/ha of active ingredient. The treated containers are placed on greenhouse benches and cared for in accordance with conventional greenhouse procedures. Three to four weeks after treatment, the test is terminated and each container is examined and herbicidal effect rated according to the rating system provided in Example 37. The compounds evaluated are reported by compound number given in Example 37.

CYPIR (Rice Flatsedge) [11] = assay: as above; format: in vivo, Cyperus iria; settings: postemergence weeds, 3-4 weeks after treatment
Source text: as §3, §6

CYPSE (Flatsedge) [12] = assay: as above; format: in vivo, Cyperus serotinus; settings: postemergence weeds, 3-4 weeks after treatment
Source text: as §3, §6

MOOVA (Monochoria) [13] = assay: as above; format: in vivo, Monochoria vaginalis; settings: postemergence weeds, 3-4 weeks after treatment
Source text: as §3, §6

[14] = tested on: SAGPY (Arrowhead (Pygmaea)); assay: as above; format: in vivo, Sagittaria pygmaea; settings: postemergence weeds, 3-4 weeks after treatment
Source text: as §3, §6

CCOC(=O)CN1C(=O)C(CC(N)=O)S/C1=N/c1cc(-n2c(=O)cc(C(F)(F)F)n(C)c2=O)c(F)cc1Cl (stereo not shown) [Compound 56, Ethyl 5-(carbamoylmethyl)-2-{{2-chloro-5-[3,6-dihydro-3-methyl-2,6-dioxo-4-(trifluoromethyl)-1(2H)-pyrimidinyl]-4-fluorophenyl}imino}-4-oxo-3-thiazolidineacetate]
Postemergence herbicidal rating ABUTH (ABUTH (Velvetleaf); Rate 0.0158 kg/ha): 9.0 | Postemergence herbicidal rating ABUTH (ABUTH (Velvetleaf); Rate 0.0315 kg/ha): 9.0 | Postemergence herbicidal rating ABUTH (ABUTH (Velvetleaf); Rate 0.0630 kg/ha): 9.0 | Postemergence herbicidal rating AMBEL (AMBEL (Ragweed, Common); Rate 0.0158 kg/ha): 9.0 | Postemergence herbicidal rating AMBEL (AMBEL (Ragweed, Common); Rate 0.0315 kg/ha): 9.0 | Postemergence herbicidal rating AMBEL (AMBEL (Ragweed, Common); Rate 0.0630 kg/ha): 9.0 | Postemergence herbicidal rating CASOB (CASOB (Sicklepod); Rate 0.0158 kg/ha): 4.0 | Postemergence herbicidal rating CASOB (CASOB (Sicklepod); Rate 0.0315 kg/ha): 4.0 | Postemergence herbicidal rating CASOB (CASOB (Sicklepod); Rate 0.0630 kg/ha): 9.0 | Postemergence herbicidal rating CHEAL ([1]; Rate 0.0158 kg/ha): 9.0 | Postemergence herbicidal rating CHEAL ([1]; Rate 0.0315 kg/ha): 9.0 | Postemergence herbicidal rating CHEAL ([1]; Rate 0.0630 kg/ha): 9.0 | Postemergence herbicidal rating GALAP (GALAP (Galium); Rate 0.0158 kg/ha): 3.0 | Postemergence herbicidal rating GALAP (GALAP (Galium); Rate 0.0315 kg/ha): 6.0 | Postemergence herbicidal rating GALAP (GALAP (Galium); Rate 0.0630 kg/ha): 9.0 | Postemergence herbicidal rating IPOHE ([2]; Rate 0.0158 kg/ha): 9.0 | Postemergence herbicidal rating IPOHE ([2]; Rate 0.0315 kg/ha): 9.0 | Postemergence herbicidal rating IPOHE ([2]; Rate 0.0630 kg/ha): 9.0 | Postemergence herbicidal rating ECHCG (ECHCG (Barnyardgrass); Rate 0.0158 kg/ha): 2.0 | Postemergence herbicidal rating ECHCG (ECHCG (Barnyardgrass); Rate 0.0315 kg/ha): 2.0 | Postemergence herbicidal rating ECHCG (ECHCG (Barnyardgrass); Rate 0.0630 kg/ha): 3.0 | Postemergence herbicidal rating SETVI (SETVI (Foxtail, Green); Rate 0.0158 kg/ha): 6.0 | Postemergence herbicidal rating SETVI (SETVI (Foxtail, Green); Rate 0.0315 kg/ha): 6.0 | Postemergence herbicidal rating SETVI (SETVI (Foxtail, Green); Rate 0.0630 kg/ha): 7.0 | Postemergence herbicidal rating GLXMAW ([3]; Rate 0.0158 kg/ha): 7.0 | Postemergence herbicidal rating GLXMAW ([3]; Rate 0.0315 kg/ha): 7.5 | Postemergence herbicidal rating GLXMAW ([3]; Rate 0.0630 kg/ha): 8.0 | Postemergence herbicidal rating ORYSAT (ORYSAT (Rice, Tebonnet); Rate 0.0158 kg/ha): 1.5 | Postemergence herbicidal rating ORYSAT (ORYSAT (Rice, Tebonnet); Rate 0.0315 kg/ha): 2.0 | Postemergence herbicidal rating ORYSAT (ORYSAT (Rice, Tebonnet); Rate 0.0630 kg/ha): 2.5 | Postemergence herbicidal rating TRZAWR ([4]; Rate 0.0158 kg/ha): 4.0 | Postemergence herbicidal rating TRZAWR ([4]; Rate 0.0315 kg/ha): 4.5 | Postemergence herbicidal rating TRZAWR ([4]; Rate 0.0630 kg/ha): 5.0 | Postemergence herbicidal rating ZEAMX (ZEAMX (Corn, Field); Rate 0.0158 kg/ha): 5.0 | Postemergence herbicidal rating ZEAMX (ZEAMX (Corn, Field); Rate 0.0315 kg/ha): 5.5 | Postemergence herbicidal rating ZEAMX (ZEAMX (Corn, Field); Rate 0.0630 kg/ha): 6.5 | Herbicidal rating ECHORC ([5]; 0.0313 kg/ha): 0.0 | Herbicidal rating ECHORC ([5]; 0.0625 kg/ha): 0.0 | Herbicidal rating ECHORC ([5]; 0.1250 kg/ha): 3.0 | Herbicidal rating ECHORC ([5]; 0.2500 kg/ha): 5.0 | Herbicidal rating CYPIR (CYPIR (Rice Flatsedge) [6]; 0.0313 kg/ha): 0.0 | Herbicidal rating CYPIR (CYPIR (Rice Flatsedge) [6]; 0.0625 kg/ha): 0.0 | Herbicidal rating CYPIR (CYPIR (Rice Flatsedge) [6]; 0.1250 kg/ha): 0.0 | Herbicidal rating CYPIR (CYPIR (Rice Flatsedge) [6]; 0.2500 kg/ha): 0.0 | Herbicidal rating CYPSE (CYPSE (Flatsedge) [7]; 0.0313 kg/ha): 0.0 | Herbicidal rating CYPSE (CYPSE (Flatsedge) [7]; 0.0625 kg/ha): 0.0 | Herbicidal rating CYPSE (CYPSE (Flatsedge) [7]; 0.1250 kg/ha): 0.0 | Herbicidal rating CYPSE (CYPSE (Flatsedge) [7]; 0.2500 kg/ha): 0.0 | Herbicidal rating MOOVA (MOOVA (Monochoria) [8]; 0.0313 kg/ha): 6.0 | Herbicidal rating MOOVA (MOOVA (Monochoria) [8]; 0.0625 kg/ha): 6.0 | Herbicidal rating MOOVA (MOOVA (Monochoria) [8]; 0.1250 kg/ha): 9.0 | Herbicidal rating MOOVA (MOOVA (Monochoria) [8]; 0.2500 kg/ha): 9.0 | Herbicidal rating SAGPY ([9]; 0.0313 kg/ha): 0.0 | Herbicidal rating SAGPY ([9]; 0.0625 kg/ha): 0.0 | Herbicidal rating SAGPY ([9]; 0.1250 kg/ha): 0.0 | Herbicidal rating SAGPY ([9]; 0.2500 kg/ha): 0.0 | Herbicidal rating ECHORC ([10]; rate 0.0313 kg/ha): 0.0 | Herbicidal rating ECHORC ([10]; rate 0.0625 kg/ha): 0.0 | Herbicidal rating ECHORC ([10]; rate 0.1250 kg/ha): 3.0 | Herbicidal rating ECHORC ([10]; rate 0.2500 kg/ha): 5.0 | Herbicidal rating CYPIR (CYPIR (Rice Flatsedge) [11]; rate 0.0313 kg/ha): 0.0 | Herbicidal rating CYPIR (CYPIR (Rice Flatsedge) [11]; rate 0.0625 kg/ha): 0.0 | Herbicidal rating CYPIR (CYPIR (Rice Flatsedge) [11]; rate 0.1250 kg/ha): 0.0 | Herbicidal rating CYPIR (CYPIR (Rice Flatsedge) [11]; rate 0.2500 kg/ha): 0.0 | Herbicidal rating CYPSE (CYPSE (Flatsedge) [12]; rate 0.0313 kg/ha): 0.0 | Herbicidal rating CYPSE (CYPSE (Flatsedge) [12]; rate 0.0625 kg/ha): 0.0 | Herbicidal rating CYPSE (CYPSE (Flatsedge) [12]; rate 0.1250 kg/ha): 0.0 | Herbicidal rating CYPSE (CYPSE (Flatsedge) [12]; rate 0.2500 kg/ha): 0.0 | Herbicidal rating MOOVA (MOOVA (Monochoria) [13]; rate 0.0313 kg/ha): 6.0 | Herbicidal rating MOOVA (MOOVA (Monochoria) [13]; rate 0.0625 kg/ha): 6.0 | Herbicidal rating MOOVA (MOOVA (Monochoria) [13]; rate 0.1250 kg/ha): 9.0 | Herbicidal rating MOOVA (MOOVA (Monochoria) [13]; rate 0.2500 kg/ha): 9.0 | Herbicidal rating SAGPY ([14]; rate 0.0313 kg/ha): 0.0 | Herbicidal rating SAGPY ([14]; rate 0.0625 kg/ha): 0.0 | Herbicidal rating SAGPY ([14]; rate 0.1250 kg/ha): 0.0 | Herbicidal rating SAGPY ([14]; rate 0.2500 kg/ha): 0.0
